The source of these data is patent US6391890B1, “Heterocyclic compounds” (Novo Nordisk A/S, priority 1997, dated 2002).

Where a name gives a salt, the structure may show the parent alone.

Series [1] has as its system histamine induced paw oedema. The series can be described thus: Histamine induced paw oedema (rat, water plethysmography). The class given is in vivo. The settings on record: 1.0 mg/kg intraperitoneally, male Sprague-Dawley rats, paw swelling 20 minutes after histamine. As for the experimental part:
I. Histamine Induced Paw Oedema The rat histamine paw oedema test was performed essentially as described by Amann et al. (Europ. J. Pharmacol. 279, 227-231, 1995). In brief 250-300 g male Sprague-Dawley rats were anaesthetized with pentobarbital sodium, and placed on a 32 degree heated table. Ten minutes later histamine (50 micoliter, 3 mg/ml) was injected in the right hind paw and 20 minutes hereafter the paw swelling was determined by water plethysmography (Ugo Basile). Test compounds were administered intraperitoneally at 15 minutes before the anaesthetics.

In series [2] the test system is histamine induced blood glucose rise. The series can be described thus: Histamine induced hyperglycemia in mice. The class given is in vivo. The settings on record: 1.0 mg/kg ip 30 min before histamine icv, male NMRI mice, blood glucose at 40 min. As to the method:
II. Histamine Induced Hyperglycemia in Mice
Conscious unfasted 25 g male NMRI mice are administered histamine chloride (90 nmol) icv according to the method of Nishibori et al. (J. Pharmacol. Exp. Therap. 241, 582-286,1987). Blood glucose is determined at time 0 and 40 min after the histamine injection. Test compounds are administered at 1.0 mg/kg ip 30 min before the histamine injection, and % inhibition refers to the capacity of the compounds to inhibit the histamine induced blood glucose rise.

As for `Cl.O=C(O)CCN1CCC(=C2c3ccccc3CSc3ccccc32)CC1`, the melting point is 176 to 186 °C (dec.). On the same count and under the same terms, as for `Cl.O=C(O)CN1CCC(=C2c3ccccc3CSc3ccccc32)CC1`, the figure is 170 to 175 °C; as for `O=C(O)C1CCCN(CCCN2CCC(=C3c4ccccc4CSc4ccccc43)CC2)C1` (stereo not shown) (as salt: hydrochloride), 245 to 255 °C (dec.); as for `O=C(O)[C@@H]1CCCN(CCN2CCC(=C3c4ccccc4CSc4ccccc43)CC2)C1` (as salt: hydrochloride), 127 to 130 °C. Consider `Cl.O=C(O)CCN1CCN(C2c3ccccc3CCc3ccccc32)CC1` [Example 2, 3-(4-(10,11-Dihydro-5H-dibenzo[a,d]cyclohepten-5-yl)piperazin-1-yl)propionic acid hydrochloride], for which, in series [1], the “Inhibition of histamine induced paw oedema, % inhibition” value was 44%. For the molecule `Cl.O=C(O)CCN1CCC(=C2c3ccccc3CCc3ccccc32)CC1` [Example 10, 3-(4-(10,11-Dihydro-5H-dibenzo[a,d]cyclohepten-5-ylidene)-1-piperidine)propionic acid hydrochloride], the “Inhibition of histamine induced hyperglycemia, % inhibition” value in series [2] came to 69%. The “Inhibition of histamine induced paw oedema, % inhibition” value in series [1] amounted to 33%.
